Results published in PubChem BioAssay AID1918949 (Molecular Pharmacology Branch, DTP, NCI, 2023).
Values joined by “and” are separate entries in the source; they are usually repeats but may differ in a detail not shown here. Equal entries are not always repeated.

Tested on: K24384-001-R-PDC complex spheroid viability
Assay: Anticancer human tumor K24384-001-R-PDC patient-derived pancreatic adenocarcinoma cell line growth inhibition
Conditions: for viability, T/C: stronger effect = lower value
Procedure, shortened: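 Drug combinations with the LSD1 inhibitor iadademstat tested on tumor cells co-cultured as spheroids with endothelial cells and mesenchymal stem cells. Concentrations descended in half-log increments from clinical Cmax or 10 microM.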

[1] = curve of first compound, second compound 0.1 µM
[2] = curve of first compound, second compound 0.316 µM
[3] = curve of first compound, second compound 1 µM
[4] = curve of first compound, second compound 3.16 µM
[5] = curve of first compound, second compound 10 µM
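Note: spheroids exposed to agents for seven days before luminescence viability reading.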
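Throughout, for viability, T/C: 100% = DMSO vehicle control viability.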

With CC(C)CC(NC(=O)C(Cc1ccccc1)NC(=O)c1cnccn1)B(O)O (stereo unspecified) the viability, T/C (compound 0.000316 µM) was 81.2% and 95.6%, the viability, T/C (compound 0.001 µM) was 1.67% and 1.46% and the viability, T/C (compound 0.00316 µM) was 0.39% and 0.47%. For the same compound, the viability, T/C (compound 0.01 µM) was 0.38%, the viability, T/C (compound 0.0316 µM) was 0.34% and 0.41% and the viability, T/C (compound 0.1 µM) was 0.36% and 0.35%. The IC50 (curve of compound) was 0.497 nM and 0.552 nM.

Nc1ncn(C2CC(O)C(CO)O2)c(=O)n1 (stereo unspecified) + NC1CCC(NC2CC2c2ccccc2)CC1 showed an IC50 [1] greater than 1000 nM, an IC50 [2] greater than 1000 nM and an IC50 [3] greater than 1000 nM. It also gave an IC50 [4] greater than 1000 nM, an IC50 [5] greater than 1000 nM and a viability, T/C (second compound 0.1 µM, first compound 0.00316 µM) of 78.3%. For the same compound, the viability, T/C (second compound 0.1 µM, first compound 0.01 µM) was 93.8%, the viability, T/C (second compound 0.1 µM, first compound 0.0316 µM) was 80.4% and the viability, T/C (second compound 0.1 µM, first compound 0.1 µM) was 73.6%. It also gave a viability, T/C (second compound 0.1 µM, first compound 0.316 µM) of 79.5%, a viability, T/C (second compound 0.1 µM, first compound 1 µM) of 73.5% and a viability, T/C (second compound 0.316 µM, first compound 0.00316 µM) of 88%. For the same compound, the viability, T/C (second compound 0.316 µM, first compound 0.01 µM) was 79.4%, the viability, T/C (second compound 0.316 µM, first compound 0.0316 µM) was 87.4% and the viability, T/C (second compound 0.316 µM, first compound 0.1 µM) was 82.5%. It also gave a viability, T/C (second compound 0.316 µM, first compound 0.316 µM) of 76.2%, a viability, T/C (second compound 0.316 µM, first compound 1 µM) of 85.1% and a viability, T/C (second compound 1 µM, first compound 0.00316 µM) of 88.4%. For the same compound, the viability, T/C (second compound 1 µM, first compound 0.01 µM) was 80.5%, the viability, T/C (second compound 1 µM, first compound 0.0316 µM) was 82.6% and the viability, T/C (second compound 1 µM, first compound 0.1 µM) was 68.3%. It also gave a viability, T/C (second compound 1 µM, first compound 0.316 µM) of 78.6%, a viability, T/C (second compound 1 µM, first compound 1 µM) of 70.1% and a viability, T/C (second compound 3.16 µM, first compound 0.00316 µM) of 89.8%. The viability, T/C (second compound 3.16 µM, first compound 0.01 µM) was 88%, the viability, T/C (second compound 3.16 µM, first compound 0.0316 µM) was 105% and the viability, T/C (second compound 3.16 µM, first compound 0.1 µM) was 76.6%. The viability, T/C (second compound 3.16 µM, first compound 0.316 µM) was 59.7%, the viability, T/C (second compound 3.16 µM, first compound 1 µM) was 60.9% and the viability, T/C (second compound 10 µM, first compound 0.00316 µM) was 92.9%. The viability, T/C (second compound 10 µM, first compound 0.01 µM) was 83.8%, the viability, T/C (second compound 10 µM, first compound 0.0316 µM) was 87.8% and the viability, T/C (second compound 10 µM, first compound 0.1 µM) was 63.2%. For the same compound, the viability, T/C (second compound 10 µM, first compound 0.316 µM) was 73.7% and the viability, T/C (second compound 10 µM, first compound 1 µM) was 72.7%.

In the case of Nc1ccccc1NC(=O)c1ccc(CNC(=O)OCc2cccnc2)cc1, the viability, T/C (compound 0.00949 µM) is reported as 95.6% and 102%, the viability, T/C (compound 0.03 µM) is reported as 102% and 108% and the viability, T/C (compound 0.0949 µM) is reported as 89.1% and 128%. For the same compound, the viability, T/C (compound 0.3 µM) was 69.4% and 70.9%, the viability, T/C (compound 0.949 µM) was 11.8% and 9.62% and the viability, T/C (compound 3 µM) was 0.21% and 0.26%. The IC50 (curve of compound) was 438 nM and 432 nM.

For NS(=O)(=O)OCC1CC(n2ccc3c(NC4CCc5ccccc54)ncnc32)CC1O (stereo unspecified), the viability, T/C (compound 0.00949 µM) was 98.5% and 116%, the viability, T/C (compound 0.03 µM) was 123% and 143% and the viability, T/C (compound 0.0949 µM) was 109% and 126%. For the same compound, the viability, T/C (compound 0.3 µM) was 52.2% and 53.9%, the viability, T/C (compound 0.949 µM) was 34.3% and 34.6% and the viability, T/C (compound 3 µM) was 19.9% and 22.4%. For the same compound, the IC50 (curve of compound) was 338 nM and 362 nM.

COc1cc(C2c3cc4c(cc3C(OC3OC5COC(C)OC5C(O)C3O)C3COC(=O)C23)OCO4)cc(OC)c1O (stereo unspecified) + NC1CCC(NC2CC2c2ccccc2)CC1 was tested, and the IC50 [1] was 1330 nM, the IC50 [2] was 1860 nM and the IC50 [3] was 2650 nM. For the same compound, the IC50 [4] was greater than 3000 nM, the IC50 [5] was 2620 nM and the viability, T/C (second compound 0.1 µM, first compound 0.00949 µM) was 91.2%. The viability, T/C (second compound 0.1 µM, first compound 0.03 µM) was 92.8%, the viability, T/C (second compound 0.1 µM, first compound 0.0949 µM) was 86.4% and the viability, T/C (second compound 0.1 µM, first compound 0.3 µM) was 65.3%. It also gave a viability, T/C (second compound 0.1 µM, first compound 0.949 µM) of 55.9%, a viability, T/C (second compound 0.1 µM, first compound 3 µM) of 42.8% and a viability, T/C (second compound 0.316 µM, first compound 0.00949 µM) of 107%. The viability, T/C (second compound 0.316 µM, first compound 0.03 µM) was 83.3%, the viability, T/C (second compound 0.316 µM, first compound 0.0949 µM) was 79.7% and the viability, T/C (second compound 0.316 µM, first compound 0.3 µM) was 75.7%. For the same compound, the viability, T/C (second compound 0.316 µM, first compound 0.949 µM) was 57.2%, the viability, T/C (second compound 0.316 µM, first compound 3 µM) was 43.2% and the viability, T/C (second compound 1 µM, first compound 0.00949 µM) was 98.4%. For the same compound, the viability, T/C (second compound 1 µM, first compound 0.03 µM) was 97.2%, the viability, T/C (second compound 1 µM, first compound 0.0949 µM) was 69.3% and the viability, T/C (second compound 1 µM, first compound 0.3 µM) was 72.6%. For the same compound, the viability, T/C (second compound 1 µM, first compound 0.949 µM) was 59.6%, the viability, T/C (second compound 1 µM, first compound 3 µM) was 47.8% and the viability, T/C (second compound 3.16 µM, first compound 0.00949 µM) was 87.8%. The viability, T/C (second compound 3.16 µM, first compound 0.03 µM) was 102%, the viability, T/C (second compound 3.16 µM, first compound 0.0949 µM) was 67.9% and the viability, T/C (second compound 3.16 µM, first compound 0.3 µM) was 65%. For the same compound, the viability, T/C (second compound 3.16 µM, first compound 0.949 µM) was 57.9%, the viability, T/C (second compound 3.16 µM, first compound 3 µM) was 54% and the viability, T/C (second compound 10 µM, first compound 0.00949 µM) was 88.2%. The viability, T/C (second compound 10 µM, first compound 0.03 µM) was 98.4%, the viability, T/C (second compound 10 µM, first compound 0.0949 µM) was 90.1% and the viability, T/C (second compound 10 µM, first compound 0.3 µM) was 73.2%. It also gave a viability, T/C (second compound 10 µM, first compound 0.949 µM) of 66% and a viability, T/C (second compound 10 µM, first compound 3 µM) of 47.4%.
